We go through eight molecules from publication PMC6804243, “Small-Molecule Inhibition of UBE2T/FANCL-Mediated Ubiquitylation in the Fanconi Anemia Pathway” (ACS Chemical Biology, 2019).

SMILES strings stand for the structures. Read-outs that look alike come from different tables or passages of the source. Some results are limits rather than exact numbers.

The target of test [1] is T1, UBE2T/FANCLRING (ubiquitylation of GST-FANCLRING) (Homo sapiens, UniProt Q9NW38).
T1 sequence (Q9NW38 275-375 limits assumed): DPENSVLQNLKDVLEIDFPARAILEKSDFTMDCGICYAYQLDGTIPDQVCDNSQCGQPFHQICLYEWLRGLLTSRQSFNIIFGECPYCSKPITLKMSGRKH
Nature of the test: biochemical. The note with it: for LE: ligand efficiency = 1.4(–logIC50)/HAC; for inhibition at 20 µM: read-out: Primary screen % Inhibition (20 M). The source says:
To identify small-molecule inhibitors of the FA pathway, we developed a high-throughput screen (HTS) compatible assay based on the FA ubiquitylation cascade (see Figure 1a, as well as Figure S1 in the Supporting Information). Given the complexity of the full FA ubiquitylation cascade, we constructed a simplified ubiquitylation reaction that would be robust for HTS purposes yet still provide many relevant protein species for small molecules to interact with. The recombinant protein assay developed used homogeneous time-resolved fluorescence (HTRF) and contained Cy5-labeled ubiquitin, the E1 enzyme UBE1, the E2 enzyme UBE2T, and the RING domain (residues 275–375) of the E3 FANCL (FANCLRING). FANCLRING was used as a surrogate substrate for ubiquitylation in the absence of the FA core and FANCD2/FANCI complexes.
Figure 1 Screening for inhibitors of the FA pathway. (a) Schematic of the HTRF ubiquitylation assay. Ubiquitylation of GST-tagged E3 (FANCLRING) by the E2 (UBE2T) places Cy5-labeled ubiquitin in close proximity to the anti-GST Tb cryptate. Excitation of the Tb cryptate donor results in FRET to the Cy5 acceptor. Simultaneous monitoring of the donor emission (620 nm) and acceptor emission (665 nm) allows for determination of the 665/620 ratio. (b) HTRF screen results showing average inhibition (n = 2) produced by compounds at 20 μM (in-house diversity library; 10 111 compounds) and 10 μM (Selleckchem epigenetic library; 119 compounds). Numbers given in parentheses represent the number of compounds per inhibition threshold.
Purified protein was concentrated using a Vivaspin-6 concentrator with a 10 kDa MW cut-off (Vivascience) and flash-frozen in small aliquots for storage at […]
Cy5 labelling of ubiquitin. To a 5 mg/mL solution of recombinant human ubiquitin (Boston Biochem) in 0.1 M NaHCO3 pH 8.3, was added a 4-fold molar excess of Cyanine5 NHS ester (Lumiprobe). The reaction was incubated at 23 °C for 4 hours in the dark. The protein was separated from unreacted dye by passage through a PD-10 desalting column (GE Healthcare) equilibrated with PBS. Purified protein was concentrated using a Vivaspin-6 concentrator with a 3 kDa MW cut-off (Vivascience) and flash-frozen in small aliquots for storage […]
Homogeneous Time-Resolved Fluorescence (HTRF) Assay. GST-FANCLRING (200 nM) was incubated with anti-GST Tb (CisBio, #61GSTTL) (2.5 ng final) at room temperature for 30 minutes in assay buffer (50 mM Tris-HCl pH 8.0, 1 mM TCEP, 5 mM MgCl2, 0.005% Tween-20). Meanwhile, 10 μL of UBE2T in assay buffer (or assay buffer alone for no enzyme controls) was incubated in a white 384-well plate (Corning) with 20 nL DMSO or compound in DMSO. After 30 minutes, the GST-RINGRING solution was added to an equal volume solution containing His-UBE1 (Boston Biochem) (16 nM), Cy5-ubiquitin (400 nM), ATP (0.8 mM) in assay buffer. 10 μL of this solution was immediately added to each well of the 384 -well plate containing UBE2T or buffer. F inal concentrations: His -UBE1 (4 nM), UBE2T (6 nM), GST -RINGRING (50 nM), Cy5-ubiquitin (100 nM), ATP (0.2 mM), compound (10 or 20 μM) in 0.1 %
(v/v) DMSO. After a 10 minute incubation at 23 °C, 5 µL of a 50 mM EDTA solution were added to each well to stop the reaction. Signal was measured at λEx 340 nm and λEm 665 nm and 620 nm using a PHERAstar FS plate reader
(BMG Labtech). A ratio was calculated as [λEm(665)/λEm(620)] × 104 for each well and this was used to determine the percent inhibition for test compounds.
Gel-based ubiquitylation assays. Assays were carried out in a total volume of 10 µL containing 20 nM His6-UBE1 (Boston Biochem), 50 nM UBE2T, 250 nM GST-E3 and 500 nM biotinylated ubiquitin (Boston Biochem) in buffer (50

In test [2] the test system is FANCD2 foci and γH2AX in U2OS cells. Nature of the test: High-throughput high content indirect immunofluorescence (FANCD2 foci, γH2AX). Format: cell-based. As to conditions: CU2 500 μM, HU 2.5 mM 8 h, cisplatin 10 μM 8 h; for H2AX positive nuclei, Experiment 1 / H2AX positive nuclei, Experiment 2 / H2AX positive nuclei, Experiment 3: CU1 200 μM, raw data; for H2AX positive nuclei, Totals: sum of experiments 1-3, CU1 200 μM. The procedure:
In response to DNA damage, mUb-FANCD2 accumulates at sites of DNA lesions to form foci, promote DNA-damage sensing, activate cell-cycle checkpoints, and promote DNA repair.[23] Therefore, we employed high-throughput high-content indirect immunofluorescence studies to examine the effect of CU1 and CU2 on mUb-FANCD2 focus formation. The experimental format used was similar to the immunoblot-based experiments, excepting that, following treatment with HU (2.5 mM for 8 h) or cisplatin (10 μM for 8 h), cells were fixed, permeabilized and stained with specific FANCD2 primary and fluorescent secondary antibodies. In addition to monitoring mUb-FANCD2 foci, γH2AX was evaluated as a marker of DNA damage induction, and cell nuclei were visualized by 4′,6-diamidino-2-phenylindole (DAPI) staining. […] These observations are in accord with the immunoblot-based experiments wherein reductions in mUb-FANCD2 were observed (Figure 3a).
Figure 4 Further cell-based assays with CU1 and CU2: (a, b) Representative immunofluorescence images of U2OS cells treated with HU (2.5 mM, 8 h) or cisplatin (10 μM, 8 h) in the presence or absence of CU1 (200 μM) or CU2 (500 μM). (c) Quantification of the number of FANCD2 foci in cells treated as in panels (a) and (b). Data accumulated over three independent experiments, each consisting of three technical replicas. (d) IncuCyte analysis of U2OS cells treated with or without carboplatin (15 μM) and CU2 (250 μM). Mean calculated from three wells, four images per well. (HU = DMSO + HU, cisplatin = DMSO + cisplatin). […]
buffer (1 hour at room temperature) followed by three washes with PBST. Cells were then counterstained with DAPI (25 µg/mL) and mounted using Vectashield […]
High-throughput high content indirect immunofluorescence. U2OS cells, seeded in a 96-well plate, were treated with compound for 1 hour followed by 2.5 mM HU or 10 µM cisplatin for 8 hours. Cells were washed 3 times with wash buffer (1xPBS, 0.1% Tween-20) before being fixed in 2% paraformaldehyde (w/v) for 20 minutes at 23 °C. The cells were then washed a further 3 times in wash buffer before being stored overnight at 4°C in the final wash. Next day, the cells were permeabilized using 1xPBS, 0.5% Triton X-100 for 15 minutes at 23 °C and then washed 3 times with wash buffer before blocking with 5% BSA in 1xPBS, 0.1% Tween-20 for 30 minutes at 23 °C. After washing 3 times with wash buffer, the cells were incubated for 1 hour at 23 °C in the presence of primary antibodies (1:50 FANCD2, Santa Cruz, mouse monoclonal and 1:250 γH2AX, Cell Signalling, rabbit) in 5% BSA in wash buffer. After incubation in the presence of primary antibodies, the cells were washed 3 times with wash buffer before being incubated with secondary antibodies in 5% BSA in wash buffer for 1 hour in the dark at 23 °C. The secondary antibodies used were goat anti-mouse AlexaFluor 488 and goat anti-rabbit AlexaFluor 594 (both from Molecular Probes, Invitrogen). The cells were then washed a further 3 times with wash buffer before being stained in the presence of 2 µg/ml DAPI (Sigma D9542) in wash buffer for 10 minutes in the dark at 23 °C. After DAPI staining, the cells were washed 3 more times with wash buffer and stored in the final wash until ready for imaging.
A spinning-disk Opera PhenixTM (Perkin Elmer) microscope equipped with a 40x water immersion objective was employed to acquire 10 confocal images for each well in a single optimized focal plane comprising three fluorescence channels: 405, 488 and 568 nm for DAPI, Alexa Fluor 488 and Alexa Fluor 594, respectively. Image analysis and evaluation was done using Harmony High-Content Imaging and Analysis software. DAPI staining (405 nm) was used to segment nuclei, which were further gated for the presence of γH2AX staining

In the next test the test system is U2OS cells. Nature of the test: IncuCyte cell proliferation assay. As to conditions: 15 μM carboplatin in DMSO-treated cells. The test is classed as cell-based. On the procedure: Figure 4 Further cell-based assays with CU1 and CU2: (a, b) Representative immunofluorescence images of U2OS cells treated with HU (2.5 mM, 8 h) or cisplatin (10 μM, 8 h) in the presence or absence of CU1 (200 μM) or CU2 (500 μM). (c) Quantification of the number of FANCD2 foci in cells treated as in panels (a) and (b). Data accumulated over three independent experiments, each consisting of three technical replicas. (d) IncuCyte analysis of U2OS cells treated with or without carboplatin (15 μM) and CU2 (250 μM). Mean calculated from three wells, four images per well. (HU = DMSO + HU, cisplatin = DMSO + cisplatin).
Finally, to investigate if CU1 and CU2 could sensitize cells to a more clinically relevant chemotherapeutic agent, quantitative live cell analyses were performed using the IncuCyte platform. As the FA pathway is involved in the repair of ICLs, cells were treated with the ICL-inducing chemotherapeutic drug, carboplatin. For this experiment, U2OS cells were seeded at a relatively low (<10%) density and preincubated with CU1 or CU2 for 1 h. Carboplatin was then added to the cells and images were taken every 6 h for 8 days in order to monitor growth and proliferation of the cells.
Reaction mixtures were incubated for the indicated time at 37 °C and stopped by the addition of 2X reducing SDS -PAGE sample buffer, separated on NuPAGE Novex 4 –12% Bis/Tris gradient gels (Invitrogen) and visualized by Western blotting using the indicated antibodies (Table S3).
Cell culture. U2OS cells were cultured at 37 °C in a humidified atmosphere and 5% (v/v) CO2 in Dulbecco's Modified Eagle Medium (DMEM; Sigma-Aldrich) supplemented with 10% (v/v) fetal bovine serum (FBS), 100 units/ml of penicillin, […] of streptomycin and 292 μg/mL L-glutamine.
Cell extract preparation and immunoblotting. U2OS cells were lysed in buffer containing 50 mM Tris-HCl pH 7.5, 2% SDS, 10 mM NEM, cocktail protease inhibitor (Roche) and phosphatase inhibitor cocktail followed by sonication 100 µg of extracts were boiled for 5 mins at 95 °C in 5X loading buffer and loaded onto NuPAGE Novex 4–12% Bis/Tris gradient gels
(Invitrogen), or NuPAGE Novex 3-8% Tris/Acetate gradient gels (Invitrogen) for detection of mUb-FANCD2. After separation the gels were transferred to PVDF and the membranes were blocked with Tris-buffered saline containing 0.1% (v/v) Tween-20 (TBST) and 5% (v/v) bovine serum albumin (BSA) and incubated with the indicated primary and secondary antibodies. mUb-FANCD2 intensity was quantified using Image Studio (LI-COR).
IncuCyte cell proliferation assays. 2000 U2OS cells were seeded per well in 96-well plates and treated with compounds 24 hours afterwards. After 1 hour of compound treatment, 15 µM carboplatin (Sigma-Aldrich) was added and the cells were cultured in an incubator with an IncuCyte microscopy -platform (Essen BioScience). Phase -contrast images were acquired every 6 hours for 8 days until DMSO-carboplatin treated cells reached >80% confluence. Cell proliferation was monitored as the occupied area (% confluence) of cell images over time and calculated as percentage confluence over time. Cell confluency percentages were calculated using the integrated Cell Player software and results were analysed with Prism 6 (GraphPad Software).

The mark [3] stands for this setting: library stock, 10-point dose-response, read-out: Primary screen IC50.
[4] abbreviates: printed beside the structures in Figure S3, read-out: IC50 (Figure S3).

By IC50 is commonly meant the midpoint of a concentration-inhibition curve. Usually inhibition stands for the percentage by which the read-out fell short of the control. For `COc1ccc(CNC(=O)c2ccc(-n3nccc3C)cc2)cc1C(=O)O` [CU3], in test [1] (setting [3]), the half-inhibitory concentration (IC50) was determined as 51.8 µM. In test [1], the LE came to 0.22 and the inhibition at 20 µM turned out to be 20.3%. Besides, the IC50 in test [1] (setting [4]) was found to be 49.8 µM.

On to `Cc1cc(C(=O)O)cc(S(=O)(=O)Nc2ccccc2-n2cccn2)c1C` [CU4], for which, in test [1] (setting [3]), the IC50 turned out to be 61 µM. In addition, in test [1], the LE is 0.22 and the inhibition at 20 µM was 20.7%. Also, the IC50 in test [1] (setting [4]) turned out to be 82.5 µM.

Consider `O=C(c1ccc2n[nH]nc2c1)N1CCC(COc2ccccc2)CC1` [CU6], for which the half-inhibitory concentration (IC50) in test [1] (setting [3]) was found to be 30.8 µM; in test [1] (setting [4]) it was 25.8 µM. This molecule had an LE in test [1] of 0.26. Also, in test [1], the inhibition at 20 µM was found to be 37%.

As to `Cc1nc2ccccc2n1CCNS(=O)(=O)c1ccc2c(c1)CC(=O)N2` [CU7], the IC50 in test [1] (setting [3]) was 64.2 µM. Moreover, in test [1], the LE stood at 0.24 and the inhibition at 20 µM is 39.6%. Besides, the IC50 in test [1] (setting [4]) turned out to be 35.3 µM.

Take `Cn1ncc(C#N)c1NC(=O)Cc1coc2cc3c(cc12)CCC3` [CU8]: the results for the IC50 in test [1] (setting [3]) and in test [1] (setting [4]) were 33.7 µM and 73.2 µM, respectively. The same molecule gave an LE in test [1] of 0.24. Moreover, the inhibition at 20 µM in test [1] was found to be 34%.

For `NC(=O)NO` [HU, Hydroxyurea, reference compound], in test [2], the “H2AX positive nuclei, Experiment 1” value came to 390; the “H2AX positive nuclei, Experiment 2” value was found to be 672; the “H2AX positive nuclei, Experiment 3” value stood at 708; the “H2AX positive nuclei, Totals” value was 1770.

Take `N.N.O=C([O-])C1(C(=O)[O-])CCC1.[Pt+2]` [carboplatin, reference compound]: the proliferation rate result in the test on U2OS cells is recorded as “clear reduction in proliferation rate”. In addition, in the test with U2OS cells (after 8 days), the confluency is on record as < 100%.

With `N.N.[Cl][Pt][Cl]` [cisplatin, reference compound], in test [2], the “H2AX positive nuclei, Experiment 1” value turned out to be 915; the “H2AX positive nuclei, Experiment 2” value came to 1122; the “H2AX positive nuclei, Experiment 3” value is given as 1056; the “H2AX positive nuclei, Totals” value came to 3093.
